Measurements as given in paper PMC8294803, “A Roadmap to the Structure-Related Metabolism Pathways of Per- and Polyfluoroalkyl Substances in the Early Life Stages of Zebrafish (Danio rerio)” (Environmental Health Perspectives, 2021).
Where two headings read alike, the source gives them in different places.

System: zebrafish embryos
[1] = 5μM through 120 hpf, malformation rate

Compound | pericardial oedemata, Mean [1] [%] | spinal curvature, Mean [1] [%] | tail dysplasia, Mean [1] [%] | Mortality (%) (5 µM, exposure through 120 hpf) | Mortality (%) (in vivo) | pericardial oedemata, Mean (in vivo) [%] | spinal curvature, Mean (in vivo) [%] | tail dysplasia, Mean (in vivo) [%]
FC(F)(F)COC(OCC(F)(F)F)OCC(F)(F)F [compound 1, tris(Trifluoroethoxy)methane] | 2.22 | 2.22 | 2.22 | 0 |  |  |  | 
FCOC(C(F)(F)F)C(F)(F)F [compound 3, Sevoflurane, reference compound] | 0.00 | 2.22 | 0.00 | 1.1 |  |  |  | 
O=S(=O)(F)C(F)(F)C(F)(F)C(F)(F)C(F)(F)F [compound 8, Perfluorobutanesulfonyl fluoride] | 0.00 | 1.11 | 3.33 | 2.2 |  |  |  | 
CCN(CCO)S(=O)(=O)C(F)(F)C(F)(F)C(F)(F)C(F)(F)C(F)(F)C(F)(F)C(F)(F)C(F)(F)F [compound 9, N-Ethyl-N-(2-hydroxyethyl)perfluorooctanesulfonamide] | 1.11 | 0.00 | 0.00 | 1.1 |  |  |  | 
OCC(F)(F)C(F)(F)C(F)(F)F [compound 11, Heptafluorobutanol] | 4.44 | 2.22 | 0.00 | 1.1 |  |  |  | 
C=CCOC(F)(C(F)(F)F)C(F)(F)F [compound 18, Allyl perfluoroisopropyl ether] | 0.00 | 0.00 | 0.00 | 3.3 |  |  |  | 
CC=CC(F)(F)C(F)(F)C(F)(F)F [compound 22, 1-Propenylperfluoropropane] | 0.00 | 0.00 | 0.00 | 3.3 |  |  |  | 
C=CC(F)(C(F)(F)F)C(F)(F)C(F)(F)F (stereo not shown) [compound 25, 2-Vinylperfluorobutane] | 0.00 | 0.00 | 0.00 | 1.1 |  |  |  | 
FC(F)(F)COCC(F)(F)F [compound 27, Flurothyl, reference compound] | 2.22 | 0.00 | 0.00 | 1.1 |  |  |  | 
CC(F)(F)CC(F)(F)F [compound 29, 1,1,1,3,3-Pentafluorobutane] | 0.00 | 0.00 | 0.00 | 3.3 |  |  |  | 
NC(O)(C(F)(F)F)C(F)(F)F [compound 33, 2-Aminohexafluoropropan-2-ol] | 0.00 | 0.00 | 0.00 | 7.8 |  |  |  | 
O=C(O)C(F)(OC(F)(F)C(F)(F)C(F)(F)F)C(F)(F)F (stereo not shown) [compound 37, Perfluoro-2-methyl-3-oxahexanoic acid] | 2.22 | 0.00 | 1.11 | 1.1 |  |  |  | 
OCCC(F)(F)C(F)(F)C(F)(F)C(F)(F)F [compound 41, 4:2 Fluorotelomer alcohol] | 3.33 | 0.00 | 0.00 | 0 |  |  |  | 
O=CC(F)(F)C(F)(F)C(F)(F)F [compound 42, Perfluorobutyraldehyde] | 2.22 | 2.22 | 0.00 | 0 |  |  |  | 
O=C(OC(=O)C(F)(F)C(F)(F)F)C(F)(F)C(F)(F)F [compound 43, Pentafluoropropanoic anhydride] | 4.44 | 0.00 | 4.44 | 5.6 |  |  |  | 
COC(F)(F)C(F)(C(F)(F)F)C(F)(F)F [compound 44, Perfluoroisobutyl methyl ether] |  |  |  |  | 1.1 | 1.11 | 1.11 | 0.00

Compound | pericardial oedemata, Mean [1] [%] | spinal curvature, Mean [1] [%] | tail dysplasia, Mean [1] [%] | Mortality (%) (5 µM, exposure through 120 hpf) | Mortality (%) (in vivo) | pericardial oedemata, Mean (in vivo) [%] | spinal curvature, Mean (in vivo) [%] | tail dysplasia, Mean (in vivo) [%]
FC(F)(F)C(F)(F)CNCC(F)(F)C(F)(F)F [compound 45, Bis(1H,1H-perfluoropropyl)amine] | 1.11 | 0.00 | 1.11 | 2.2 |  |  |  | 
O=C(F)C(F)(F)C(F)(F)C(F)(F)C(F)F [compound 51, 5H-Octafluoropentanoyl fluoride] |  |  |  |  | 0 | 1.11 | 0.00 | 3.33
FC(F)OCC(F)(F)C(F)(F)F [compound 52, Difluoromethyl 1H,1H-perfluoropropyl] | 1.11 | 0.00 | 0.00 | 2.2 |  |  |  | 
FC(F)=C(F)OC(F)(F)C(F)(F)C(F)(F)F [compound 53, Heptafluoropropyl trifluorovinyl ether] | 0.00 | 1.11 | 0.00 | 2.2 |  |  |  | 
CC(=O)C(F)(F)C(F)(F)F [compound 55, Methyl perfluoroethyl ketone] | 1.11 | 2.22 | 0.00 | 2.2 |  |  |  | 
C=CC(F)(F)C(F)(F)C(F)(F)C(F)(F)F [compound 59, 1H,1H,2H-Perfluoro-1-hexene] | 0.00 | 1.11 | 0.00 | 4.4 |  |  |  | 
CC(O)C(F)(F)C(F)(F)F (stereo not shown) [compound 62, 1-Pentafluoroethylethanol] | 1.11 | 0.00 | 1.11 | 6.7 |  |  |  | 
O=C(F)C(F)(F)C(F)(F)C(F)(F)C(=O)F [compound 63, Perfluoroglutaryl difluoride] | 0.00 | 0.00 | 0.00 | 5.6 |  |  |  | 
OCCC(F)(F)C(F)(F)C(F)(F)C(F)(F)C(F)(F)C(F)(F)C(F)(F)C(F)(F)F [compound 64, 8:2 Fluorotelomer alcohol] | 0.00 | 2.22 | 0.00 | 3.3 |  |  |  | 
CCOC(F)(F)C(F)(F)C(F)(F)C(F)(F)F [compound 65, Ethyl perfluorobutyl ether] | 0.00 | 0.00 | 0.00 | 0 |  |  |  | 
OC(O)(C(F)C(O)(O)C(F)(F)F)C(F)(F)F [compound 66, 3H-Perfluoro-2,2,4,4-tetrahydroxypentane] | 0.00 | 0.00 | 0.00 | 1.1 |  |  |  | 
NCC(F)(F)C(F)(F)C(F)(F)C(F)(F)F [compound 68, 1H,1H-Perfluoropentylamine] | 0.00 | 0.00 | 0.00 | 1.1 |  |  |  | 
FC(F)=C(F)C(F)(F)C(F)(F)C(F)(F)C(F)F [compound 69, 6H-Perfluorohex-1-ene] | 0.00 | 0.00 | 0.00 | 0 |  |  |  | 
NC(C(F)(F)F)C(F)(F)F [compound 71, 2-Amino-2H-perfluoropropane] | 0.00 | 0.00 | 0.00 | 3.3 |  |  |  | 
O=CC(F)(F)C(F)(F)C(F)(F)C(F)F [compound 72, 5H-Perfluoropentanal] | 0.00 | 0.00 | 0.00 | 3.3 |  |  |  | 
